Tests used:
[1] = tested on: WT αβγ-hENaC, WT δβγ-hENaC or mutant hENaC; test: Amiloride block of whole-cell sodium current in transfected HEK-293 cells; type: cell-based, human; details: amiloride 10 μM, HEK-293 whole-cell sodium current
Experimental: Concentration-response curves were plotted, and EC50 values and Hill coefficients were determined using Microcal Origin 7.0. […] Finally, amiloride was added to enable estimation of the peptide-induced increase in amiloride-sensitive Na+ current. […] Amiloride was used at 10 μM for WT αβγ-hENaC, WT δβγ-hENaC or mutant hENaC; these concentrations yielded greater than 95% hENaC inhibition. Only cells with clear amiloride response were included in data analysis.

αβγV543fs-hENaC = test: Whole cell patch clamp, HEK-293 cells expressing PHA type IB frameshift mutant αβγV543fs-hENaC; type: cell-based, human; details: HEK-293, peptide concentration 220 nM, mean ± SE, n = 5; no peptide: loss-of-function; Table 2
Experimental: The ENaC-activating properties of cyclic peptides are tested electrophysiologically in vitro using whole cell and […] patch clamp techniques Hazemi et al, 2010; Tzotzos et al, 2013; Shabbir et al, 2013). A whole call patch clamp assay is used to measure the induced amiloride-sensitive Na+ current, calculate concentration-response curves and thus estimate the potency measured as effective concentration at half maximum response (EC50), for cyclic peptides.
In addition, mutant delta ENaC subunits were also constructed by site-directed mutagenesis, containing homologous mutations to those observed in conserved positions in the other three ENaC subunits.
Point mutations were introduced into cDNA encoding alpha, beta, gamma and delta ENaC using a commercially available site-directed mutagenesis kit (QuikChange Lightning Site-Directed Mutagenesis Kit; Agilent Technologies). […]
(§1) Whole cell currents were recorded as previously described (Shabbir et al, 2013).
(§2) Data represent the mean ±S.E. unless otherwise stated; experiments were performed on three to seven batches of independently transfected cells in the HEK-293 heterologous expression system. Statistical significance between different groups was determined using an unpaired, two-tailed Student's t test using GraphPad Prism version 3.02 (GraphPad Software, San Diego). […]

[2] = tested on: PHA type IB mutant loss-of-function hENaC; test: Whole cell patch clamp, HEK-293 cells expressing PHA type IB mutant hENaCs (overall conclusions); type: cell-based, human; details: whole cell electrophysiological assay, versus absence of peptide
Experimental: In addition, mutant delta ENaC subunits were also constructed by site-directed mutagenesis, containing homologous mutations to those observed in conserved positions in the other three ENaC subunits. […]
as §1
Concentration-response curves were plotted, and EC50 values and Hill coefficients were determined using Microcal Origin 7.0. […]
After GOhm-seal (GΩ-seal) formation, and an equilibration period of 5 min, sodium current was recorded at Eh from —80 to +80 mV in 20 mV increments held for 1 min at each Eh.
as §2

[3] = target: αβγV543fs-hENaC (human), P37088; test: cell-based or functional assay
αQ101Kβγ-hENaC = αQ101Kβγ-hENaC (human, UniProt P37088 1-669; P51168 1-640; P51170 1-649); test: cell-based or functional assay
αβG37Sγ-hENaC = αβG37Sγ-hENaC (human, UniProt P37088 1-669; P51168 1-640; P51170 1-649); test: cell-based or functional assay

N=C(N)NC(=O)c1nc(Cl)c(N)nc1N [Amiloride, amiloride]
hENaC inhibition [1]: greater than 95%

Cyclo(4-aminobutanoic acid-GQRETPEGAEAKPWYD) (not fully specified; cyclized via 4-aminobutanoic acid) [AP318]
Inward current measured (amiloride-sensitive current) (αβγV543fs-hENaC): 177.7 ± 6.5 pA | Amiloride-sensitive sodium ion current through PHA-1B mutants in the presence of peptide [2]: significantly increased

B1: AP318, Cyclo(4-aminobutanoic acid-…) (peptide)
peptide: GQRETPEGAEAKPWYD
modifications: here or on the partner: N-terminal 4-aminobutanoic acid (GABA); cyclic: amide bond between the amino group of N-terminal 4-aminobutanoic acid and the side chain carboxyl group of the C-terminal aspartic acid
Inward amiloride-sensitive current, whole cell patch clamp, HEK-293, peptide concentration 220 nM [3]: 178 pA

B2: AP318, Cyclo(4-aminobutanoic acid-GQRETPEGAEAKPWYD) (peptide)
peptide: GQRETPEGAEAKPWYD
modifications: N-terminal 4-aminobutanoic acid (GABA); cyclic: amide bond between the amino group of N-terminal 4-aminobutanoic acid and the side chain carboxyl group of the C-terminal aspartic acid
Inward amiloride-sensitive current, whole cell patch clamp, HEK-293, peptide concentration 220 nM (αQ101Kβγ-hENaC): 177 pA | Inward amiloride-sensitive current, whole cell patch clamp, HEK-293, peptide concentration 220 nM (αβG37Sγ-hENaC): 192 pA
